The NIST ThermoML archive (doi:10.1016/j.jct.2004.07.014)
± gives the expanded uncertainty stated by the source.

Settings: Liquid, Closed cell (Static) method

- vapor or sublimation pressure (305.51 K): 16.47 ± 0.22 kPa
- vapor or sublimation pressure (323.12 K): 33.71 ± 0.25 kPa
- vapor or sublimation pressure (353.13 K): 96.17 ± 0.37 kPa
Structure (SMILES): CC#N [acetonitrile]
